# Measured values: patent publication US5157019A, “Serine protease inhibitors” (Monsanto Company, priority 1991, dated 1992)
# Ends that are not written are not given here.
# Columns and labels:
# Cathepsin G = target: T1, Cathepsin G (Homo sapiens, UniProt P08311); experiment: Cathepsin G assay (Suc-Ala-Ala-Pro-Phe-pNA, 410 nm); type: biochemical
# T1 construct: purchased Elastin Products Company (EPC) SG-45
# T1 sequence (P08311 21-255): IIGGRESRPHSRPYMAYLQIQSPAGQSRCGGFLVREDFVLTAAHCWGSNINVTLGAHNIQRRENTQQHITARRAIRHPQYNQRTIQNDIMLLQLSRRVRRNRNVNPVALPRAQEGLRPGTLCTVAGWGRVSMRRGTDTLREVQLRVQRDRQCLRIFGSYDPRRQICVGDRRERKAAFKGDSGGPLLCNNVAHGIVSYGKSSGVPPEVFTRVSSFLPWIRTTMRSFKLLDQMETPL
# Description: Reference: Elastin Products Company (EPC) technical data sheet, cathepsin G, No. SG-45.
# Method: Spectrophotometric rate determination
# A) Buffer; 0.1M Tris, pH 7.5 at 25° C.
# B) Substrate; 60 mM Suc-Ala-Ala-Pro-Phe-pNA obtained from Sigma Chemical Company. Solution prepared by dissolving 50 mg substrate in 1.3 ml of 1-methyl-2-pyrrolidinone. Stored at 5° C.
# C) Peptide Inhibitors; 200 μM HCl salt. Depending on peptide solubility, dissolved in buffer or DMSO and then buffer added for a final concentration of 10% DMSO.
# D) Enzyme; Cathepsin G, EPC SG-45, lot 85117 used for all assays, 0.0077 mg protein per mg solid determined by supplier by Bradford method. Enzyme was dissolved in buffer at a concentration of approx. 5 mg/ml solid. Solution stored on ice, used within 2 hours.
# Pipetted the following into semi-micro quartz cuvettes: 0.3 ml buffer, 0.15 ml peptide solution and 0.5 ml of substrate solution. Equilibrate for 5 min. at 25° C., then add 0.05 ml of enzyme solution and monitor the release of pNA spectrophotometrically at 410 nm for at least 3 minutes. The controls contain either 0.45 ml of buffer or 20% DMSO in buffer (for a final concentration of 10% DMSO).
# The rate (O.D./min) is obtained as an average over 3 minutes. [formula]
# Plasmin = Plasmin (Homo sapiens, UniProt P00747); experiment: Plasmin assay (S2251); type: biochemical; conditions: 200 μM peptide
# Chain of Plasmin (P00747 581-810 limits assumed): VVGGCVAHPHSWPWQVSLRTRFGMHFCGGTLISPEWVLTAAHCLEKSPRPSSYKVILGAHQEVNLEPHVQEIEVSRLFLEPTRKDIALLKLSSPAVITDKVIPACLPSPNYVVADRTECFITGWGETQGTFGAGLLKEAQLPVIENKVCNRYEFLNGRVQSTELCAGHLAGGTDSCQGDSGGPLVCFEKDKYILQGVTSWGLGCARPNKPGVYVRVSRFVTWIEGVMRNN
# Chain of Plasmin (P00747 97-580 partner limits assumed): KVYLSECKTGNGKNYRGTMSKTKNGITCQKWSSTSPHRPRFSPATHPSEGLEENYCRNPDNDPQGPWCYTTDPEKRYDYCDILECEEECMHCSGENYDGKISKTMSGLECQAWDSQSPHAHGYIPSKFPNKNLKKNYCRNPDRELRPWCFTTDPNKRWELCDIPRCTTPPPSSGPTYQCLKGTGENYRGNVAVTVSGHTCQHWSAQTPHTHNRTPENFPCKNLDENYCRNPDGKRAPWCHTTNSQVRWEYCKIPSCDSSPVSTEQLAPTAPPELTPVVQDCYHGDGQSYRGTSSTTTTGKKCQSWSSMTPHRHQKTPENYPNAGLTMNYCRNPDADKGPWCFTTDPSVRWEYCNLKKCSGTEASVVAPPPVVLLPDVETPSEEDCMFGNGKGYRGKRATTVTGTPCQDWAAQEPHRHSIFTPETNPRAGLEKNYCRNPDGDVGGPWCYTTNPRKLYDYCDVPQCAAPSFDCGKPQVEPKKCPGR
# Description: Substrate H-D-Val-Leu-Lys-pNA·HCl (S2251, Kabi), 10 mM in deionized water; may be frozen for future use.
# Buffer 50 mM Tris·HCl, pH 7.4 containing 0.01% Tween 80
# Inhibitor 400 μM in deionized water
# Enzyme Plasmin; 0.5 U/ml in buffer (Cat #P-4895, Sigma Chemical Co., St. Louis, Mo.)
# Mix 220 μL buffer, 200 μL deionized water (control) or inhibitor solution and 40 μL substrate. Incubate for 2 min at 37° C. Transfer 230 μL to a microcuvette, add 40 μL of enzyme, mix, and measure rate spectrophotometrically at 405 nm for about 5 min. Inhibition (%) is calculated in the same manner as in previous assays.
# HUMAN SPUTUM ELASTASE = target: T2, HUMAN SPUTUM ELASTASE (Homo sapiens, UniProt P08246); experiment: Elastase assay (MeO-Suc-Ala-Pro-Val-pNA); type: biochemical; conditions: 200 μM peptide
# T2 construct: HUMAN SPUTUM ELASTASE; purchased Elastin Products Company SE563; host or cells: human sputum (from the product name)
# T2 sequence (P08246 30-267): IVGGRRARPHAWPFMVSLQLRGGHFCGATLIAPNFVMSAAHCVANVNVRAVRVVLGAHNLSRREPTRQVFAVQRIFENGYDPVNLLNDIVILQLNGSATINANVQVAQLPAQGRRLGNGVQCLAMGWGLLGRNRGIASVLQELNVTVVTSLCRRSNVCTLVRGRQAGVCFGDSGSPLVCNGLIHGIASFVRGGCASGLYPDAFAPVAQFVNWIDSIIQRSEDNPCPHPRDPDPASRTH
# Description: Enzyme used is "HUMAN SPUTUM ELASTASE®" which is an enzyme which is the target protease for α1 antitrypsin from Elastin Products Company, Catalog No. SE563, lot 85071, 875 units/mg as determined by supplier with N-Suc-Ala-Ala-Ala-pNA; prepared at 0.2 mg/mL in 0.1M Tris·HCl, pH 8.8 at 37 degrees C. An amount of enzyme is used to give approximately 0.1 change in Absorbance/min; which in this assay was 1 μg.
# The substrate is MeO-Suc-Ala-Pro-Val-pNA, Sigma Catalog No. M-4765. About 50 mg of the substrate is dissolved in 1 ml of 1-methyl-2-pyrrolidinone and diluted to 33 mls. with 0.1M Tris-HCl, pH 7.5, containing 0.5M NaCl, and 0.01 wt % sodium azide.
# Peptide solutions are prepared at 500 μM, using 1.5% of the final volume of DMSO first and diluting with distilled water (DW) or 0.1M Tris.HCl, pH 8.8 at 37 degrees C. [formula]
# complement activation = experiment: Reverse passive arthus reaction (RPAR), histopathology of injection sites; type: in vivo, guinea pigs; parameters: key: 0 indicating no acute inflamation; 1 indication minimal acute inflammation; 2 indicating mild acute inflammation; 3 indicating moderate acute inflammation; conditions: for Degree of inflammation, mean score, protease inhibitor only: guinea pig, intradermal injection of peptide without antibody
# Description: These exemplary peptide inhibitors (peptides 13, 7 and 27) were assayed for in vivo activity in inhibiting complement activation using the reverse passive arthus reaction (RPAR). RPAR is a model of complement-mediated damage due to activation via interaction with antigen/antibody complexes. Female guinea pigs (400 gm) were pretreated intracardially with bovine serum albumin and Evans blue dye. Ninety minutes later they received bilateral intradermal injections of peptide inhibitor or control material in the thoracolumbar region. Injection sites were excised postmortem and fixed in 10% buffered formalin for pathological evaluation. The peptides were administered to obtain an initial level of […] in the circulatory system.
# The histopathological results are outlined below. The degree of inflammation was scored as follows: 0 indicating no acute inflamation; 1 indication minimal acute inflammation; 2 indicating mild acute inflammation; and 3 indicating moderate acute inflammation.
# [1] = test system: alternative pathway of complement activation; experiment: Hemolytic assay, alternative pathway (lysis of ER cells by normal human serum); type: cell-based; conditions: 25 μM peptide
# Method: (§7) METHOD: Complement activation of the classical and alternative pathways is measured by lysis of EA and ER cells (respectively) after incubation with serum. Hemolysis is quantitated spectrophotometrically by the absorbance of hemoglobin at 415 nm.
# ER cells: Rabbit erythrocytes stored at 10^9 in Alsevers buffer, 0.01% sodium azide.^2
# (§8) h NHS: Normal human serum incubated at 56° C. for 1 hour to inactivate complement components.
# (§9) B) Wash EA cell (classical pathway) and ER cell (alternative pathway) suspensions with at least an equal volume of PBS^++ (Phosphate buffered saline, with 0.15 mM Ca^++ and 0.5 mM Mg^++). Spin at 2000 rpm for 5 minutes, decant supernatant and resuspend cells. Wash cells twice or until supernatant is obviously clear of any lysed cellular debris.
# C) After the final wash, cells should be resuspended in an appropriate volume of PBS^++ so there are approximately 5×10^8 cells/ml. Dilute cell suspension 1:30 with distilled water and determine the absorbance at 541 nm spectrophotometrically. An adsorbance of 0.175 indicates 5×10^8 cells/ml. Adjust the volume of the cell suspension accordingly with PBS^++ to get a final concentration of 2.5×10^8 cells/ml. […]
# (§10) G) Read absorbance (Abs) of the supernatant at 415 nm to determine cell lysis. […]
# (§11) c) Dilute NHS and h NHS initially so that 100 ul of that dilution in a total of 250 μl will equal the final dilution calculated in the titer assay. […]
# [2] = test system: classical pathway of complement activation; experiment: Hemolytic assay, classical pathway (lysis of EA cells by normal human serum); type: cell-based; conditions: 25 μM peptide
# Method: as §7
# EA cells: Sheep erythrocyte-antibody conjugates stored at 10^9 cells/ml in DGVB (Veronal buffer plus Ca^++ and Mg,^++, 2.5% w/v dextrose and 0.05% w/v gelatin, 0.01% sodium azide)^1
# as §8, §9
# C) After the final wash, cells should be resuspended in an appropriate volume of PBS^++ so there are approximately 5×10^8 cells/ml. Dilute cell suspension 1:30 with distilled water and determine the absorbance at 541 nm spectrophotometrically. An adsorbance of 0.175 indicates 5×10^8 cells/ml. […]
# as §10, §11
# C1s = target: T3, C1s (Homo sapiens, UniProt P09871); experiment: C1s assay by inhibition of fluid phase C4 activation; type: biochemical; conditions: Table X; μM concentration at which protease was inhibited 50%; read-out: IC50 C1S
# T3 construct: prepared from pooled human plasma; from tissue; host or cells: pooled human plasma
# T3 sequence (P09871 16-688): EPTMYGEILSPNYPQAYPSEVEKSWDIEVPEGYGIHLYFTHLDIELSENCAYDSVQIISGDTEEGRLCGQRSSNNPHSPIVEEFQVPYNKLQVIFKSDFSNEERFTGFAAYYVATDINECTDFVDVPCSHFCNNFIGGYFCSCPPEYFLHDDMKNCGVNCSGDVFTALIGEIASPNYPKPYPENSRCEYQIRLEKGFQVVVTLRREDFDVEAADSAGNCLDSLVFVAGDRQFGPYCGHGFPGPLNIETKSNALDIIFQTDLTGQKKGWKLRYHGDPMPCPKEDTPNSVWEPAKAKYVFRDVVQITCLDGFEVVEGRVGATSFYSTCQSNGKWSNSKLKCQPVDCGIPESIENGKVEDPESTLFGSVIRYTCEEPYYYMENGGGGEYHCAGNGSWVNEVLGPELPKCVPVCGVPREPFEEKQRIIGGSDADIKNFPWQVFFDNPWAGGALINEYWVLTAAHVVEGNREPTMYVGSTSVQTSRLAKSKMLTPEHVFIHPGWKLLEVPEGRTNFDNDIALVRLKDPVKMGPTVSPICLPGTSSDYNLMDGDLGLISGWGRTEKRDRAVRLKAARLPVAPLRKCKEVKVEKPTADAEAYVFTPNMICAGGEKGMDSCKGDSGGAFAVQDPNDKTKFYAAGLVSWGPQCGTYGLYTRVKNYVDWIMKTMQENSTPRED
# Description: (§1) Highly purified C3, C4, Factor D, Factor B, and C1s were prepared from pooled human plasma. Factors B and C4 were radiolabeled by periodate oxidation of sialic acid residues, followed by reduction with tritiated sodium borohydride. In a representative experiment, a solution of 1.2 mg of factor B in 1.8 ml of PBS was treated with 70 μl of 0.1M NaIO4. After 10 min incubation on ice, excess reagent was removed by filtration over "SEPHADEX®" which is a matrix for gel chromatography (1.0 cm×20 cm). To the protein pool was added 60 μl of NaB[^3 H]4 solution and incubated for 30 min on ice. Labeled protein was separated from excess reagent by desalting or dialysis. Human C4 was radiolabeled in the same manner. Radiolabeled proteins were stored at -70° C. in PBS. The specific radioactivity of ^3 H factor B was about 10,000 CPM/μg and that of ^3 H-C4 was 5,000 CPM/μg.
# The cleavage of C4 was studied by incubating 10 μg of tritiated C4 with 3-5 ng of C1s at 37° C. for 30 min in 100 μl of PBS (pH 7.10) containing different concentrations of inhibitor. The reaction was stopped by the addition of 2-mercaptoethanol. The extent of cleavage was analyzed by SDS-polyacrylamide gel electrophoresis. The stained bands corresponding to C4α and C4α' were cut out and sliced. The radioactivity of the fragments was measured by liquid scintillation counting. The percent cleavage of the reaction was calculated as follows: [formula]
# (§2) Electrophoresis was carried out under reducing conditions in the Laemmli system using slab gel of 8% polyacrylamide. The gels were stained and destained (Fairbanks et al. Biochemistry (1971) 10:2606).
# (§3) The percent inhibition of the reaction was calculated according to the following relationship: [formula]
# (§4) A: % cleavage without inhibitor
# (§5) B: % cleavage with inhibitor
# (§6) The concentration inducing 50% inhibition was obtained by plotting the percent inhibition on a probability graph (National Blank Book Co., No. 12-083) on the ordinate and the log of the inhibitor concentration on the abscissa. From this graph, a 50% inhibition concentration IC50 was obtained and this value was employed to express the activity.
# Thrombin = Thrombin (Homo sapiens, UniProt P00734); experiment: Coagulation inhibition assay, thrombin (fibrinogen clotting end point); type: biochemical; conditions: 40 μM peptide
# Description: Inhibitory activity of subject peptides toward thrombin and Factor Xa were done in the following manner. Mix 100 μL Thrombin (3.125 units/ml, 1.125 μg/ml) in TAB with […] Peptide in TAB and incubate for 1 minute at 37° C. Add 50 μL Fibrinogen (2 mg/ml)and measure clotting end point (in seconds) in a Fibrometer (BBL) TAB=Thrombin Assay Buffer: 0.15M NaCl, 6.6 gm/L PEG-6000, 0.01M Imidazole, 0.01 CaCl2, pH 7.4
# Factor D = target: T4, Factor D (Homo sapiens, UniProt P00746); experiment: Factor D assay by inhibition of fluid phase Factor B activation; type: biochemical; conditions: Table X; μM concentration at which protease was inhibited 50%; read-out: IC50 D
# T4 construct: prepared from pooled human plasma; from tissue; host or cells: pooled human plasma
# T4 sequence (P00746 26-253): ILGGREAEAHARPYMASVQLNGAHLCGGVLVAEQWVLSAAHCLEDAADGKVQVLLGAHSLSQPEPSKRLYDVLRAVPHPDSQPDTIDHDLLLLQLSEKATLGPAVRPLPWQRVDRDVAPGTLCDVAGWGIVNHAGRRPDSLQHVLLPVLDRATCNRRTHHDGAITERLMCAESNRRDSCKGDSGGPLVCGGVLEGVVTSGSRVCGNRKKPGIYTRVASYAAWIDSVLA
# Description: as §1
# The effect of the peptides on Factor D-dependent cleavage of factor B was studied by incubating 3.5 μg of Factor B, 1.5 μg of C3(H2 O) and 0.2 μl of Factor D at 37° C. for 60 min in Mg-PBS containing different concentrations of inhibitor. Uncleaved Factor B and its fragments, Ba and Bb, were first separated by SDS-PAGE and analyzed as described above. The percent cleavage of the reaction was calculated as follows: [formula]
# B=radioactivity (CPM) of uncleaved factor B
# Bb=radioactivity (CPM) of fragment Bb
# Ba=radioactivity (CPM) of fragment Ba
# as §2, §3, §4, §5, §6
# [3] = 200 μM peptide (head of Table IX)
"Cathepsin G % inhibition (Cathepsin G; 100 μM peptide (Tables VI, VIII)) [%]",Cathepsin G Inhibition (Cathepsin G; [3]) [%],Plasmin % inhibition (Plasmin) [%],Elastase Inhibition (HUMAN SPUTUM ELASTASE) [%],"Degree of inflammation, mean score, protease inhibitor only (complement activation)",IC50 (C1s) [µM],inhibition at 40 µM (Thrombin) [%],IC50 (Factor D) [µM],inhibition at 200 µM (Cathepsin G; [3]) [%],Substance,"Degree of inflammation, mean score, antibody plus protease inhibitor (complement activation; guinea pig RPAR, intradermal anti-bovine serum albumin plus peptide, antibody only mean score 3)","% inhibition, alternative pathway (AP) [1] [%]","% inhibition, classical pathway (CP) [2] [%]"
0,0,67,0,–,–,–,–,–,LRYNKPFILVLFETPGNSLVFLGRISNPATK [Peptide 23],–,–,–
–,–,–,–,0,–,–,–,–,GVRGPRVVERVTFKANRPFLVFI-OH [Peptide 13],1,61,75
–,–,–,–,0,39,50,145,28,AGRSLNPNRVTFKANRPFLVFI [Peptide 7],–,–,–
